According to ChEMBL document CHEMBL4602709 (ACS Med Chem Lett, 2020):

Columns and labels:
[1] = biological target: T1, Ephrin type-B receptor 3 (Homo sapiens, UniProt P54753); assay: Inhibition of EPHB3 (unknown origin) assessed as residual activity incubated for 5 mins in presence of [gamma-33ATP] by scintillation counting based radiometry assay
T1 sequence (P54753 whole entry): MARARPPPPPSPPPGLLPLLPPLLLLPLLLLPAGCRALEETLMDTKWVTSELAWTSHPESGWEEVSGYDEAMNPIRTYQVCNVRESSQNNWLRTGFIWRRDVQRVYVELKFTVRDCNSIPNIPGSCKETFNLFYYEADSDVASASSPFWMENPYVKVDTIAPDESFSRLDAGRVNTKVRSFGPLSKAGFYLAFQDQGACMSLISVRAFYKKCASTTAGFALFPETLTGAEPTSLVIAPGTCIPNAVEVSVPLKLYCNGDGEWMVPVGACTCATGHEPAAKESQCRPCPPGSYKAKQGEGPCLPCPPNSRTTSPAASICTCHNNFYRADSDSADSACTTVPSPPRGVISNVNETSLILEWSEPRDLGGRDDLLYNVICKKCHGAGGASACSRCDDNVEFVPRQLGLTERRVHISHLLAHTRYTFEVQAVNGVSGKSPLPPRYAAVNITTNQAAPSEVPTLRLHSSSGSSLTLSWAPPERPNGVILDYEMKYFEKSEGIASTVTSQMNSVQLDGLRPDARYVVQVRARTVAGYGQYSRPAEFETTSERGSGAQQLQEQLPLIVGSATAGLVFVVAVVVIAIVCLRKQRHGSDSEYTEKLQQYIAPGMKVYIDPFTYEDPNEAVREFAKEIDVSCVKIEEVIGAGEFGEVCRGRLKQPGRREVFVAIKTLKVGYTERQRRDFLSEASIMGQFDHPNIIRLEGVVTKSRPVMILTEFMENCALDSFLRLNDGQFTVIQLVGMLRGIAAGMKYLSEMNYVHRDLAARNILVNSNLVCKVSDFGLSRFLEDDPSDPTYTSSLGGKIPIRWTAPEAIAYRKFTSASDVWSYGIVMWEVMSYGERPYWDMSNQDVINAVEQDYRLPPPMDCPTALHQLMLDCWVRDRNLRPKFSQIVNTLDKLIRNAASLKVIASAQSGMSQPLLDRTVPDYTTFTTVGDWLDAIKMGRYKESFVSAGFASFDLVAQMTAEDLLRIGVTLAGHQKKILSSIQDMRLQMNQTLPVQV

[2] = biological target: T2, Ephrin type-B receptor 2 (Homo sapiens, UniProt P29323); assay: Inhibition of EPHB2 (unknown origin) assessed as residual activity incubated for 5 mins in presence of [gamma-33ATP] by scintillation counting based radiometry assay
T2 sequence (P29323 whole entry): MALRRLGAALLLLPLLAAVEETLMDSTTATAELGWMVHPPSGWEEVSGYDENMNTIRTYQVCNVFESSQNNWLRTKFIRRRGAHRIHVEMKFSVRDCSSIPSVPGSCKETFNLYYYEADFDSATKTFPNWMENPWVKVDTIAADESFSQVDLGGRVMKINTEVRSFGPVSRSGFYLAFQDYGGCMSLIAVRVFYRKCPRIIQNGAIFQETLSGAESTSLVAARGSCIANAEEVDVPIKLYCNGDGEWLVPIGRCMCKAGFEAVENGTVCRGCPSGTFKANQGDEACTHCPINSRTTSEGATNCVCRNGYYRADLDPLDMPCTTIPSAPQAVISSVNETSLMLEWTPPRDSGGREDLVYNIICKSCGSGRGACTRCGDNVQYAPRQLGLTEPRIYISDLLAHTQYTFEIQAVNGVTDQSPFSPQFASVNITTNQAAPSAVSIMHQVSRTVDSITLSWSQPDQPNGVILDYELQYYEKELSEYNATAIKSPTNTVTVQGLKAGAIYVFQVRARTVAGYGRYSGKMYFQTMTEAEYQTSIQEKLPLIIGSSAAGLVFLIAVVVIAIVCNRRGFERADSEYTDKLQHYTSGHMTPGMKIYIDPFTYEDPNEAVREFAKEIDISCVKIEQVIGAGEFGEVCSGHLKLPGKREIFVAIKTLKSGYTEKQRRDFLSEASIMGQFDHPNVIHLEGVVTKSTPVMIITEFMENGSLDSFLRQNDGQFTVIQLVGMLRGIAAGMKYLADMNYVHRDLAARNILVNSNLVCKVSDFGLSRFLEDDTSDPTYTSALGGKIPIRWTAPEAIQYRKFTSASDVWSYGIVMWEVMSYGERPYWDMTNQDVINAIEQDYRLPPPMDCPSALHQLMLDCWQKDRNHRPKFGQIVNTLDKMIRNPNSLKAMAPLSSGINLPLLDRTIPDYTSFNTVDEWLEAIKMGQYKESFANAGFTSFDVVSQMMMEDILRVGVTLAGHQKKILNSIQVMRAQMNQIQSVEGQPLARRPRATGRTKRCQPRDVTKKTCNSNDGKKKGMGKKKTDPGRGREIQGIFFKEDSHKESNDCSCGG

Compound: Cc1ccc(C(=O)Nc2ccc(CN3Cc4cn[nH]c4C3)c(Cl)c2)cc1C#Cc1cnc2cccnn12
- IC50 [1]: 19.5 nM
- IC50 [2]: 70.8 nM
